The conditions of this data set: Liquid, Closed cell (Static) method.

± gives the expanded uncertainty stated by the source.

For `CC(F)F` [1,1-difluoroethane], the vapor or sublimation pressure (as a rule, the pressure of vapour in equilibrium with the condensed phase) runs as follows: (254.31 K) 127 ± 10 kPa; (259.27 K) 156 ± 10 kPa; (269.26 K) 231 ± 10 kPa; (279.47 K) 331 ± 10 kPa; (287.94 K) 437 ± 10 kPa.
In the same order, the values of `CCC` [propane] are 257 ± 10 kPa, 303 ± 10 kPa, 422 ± 10 kPa, 574 ± 10 kPa and 727 ± 10 kPa.

(Values after the NIST ThermoML archive (doi:10.1021/je900744x).)
